Activity calls are given as the source filed them.
Experiments:
[1] = target: T1, Heat shock factor protein 1 (Mus musculus, UniProt P38532); assay: decrease of HSF1-responsive luciferase luminescence – cell-based, NIH3T3, dose retest, confirmation (AID 2382); format: functional;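 also: NIH3T3 fibroblasts with HSF1-driven luciferase reporter stressed by proteasome inhibitor MG132; luminescence from HSF1-driven luciferase expression after 8 hours of MG132 stress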
T1 sequence (P38532 whole entry): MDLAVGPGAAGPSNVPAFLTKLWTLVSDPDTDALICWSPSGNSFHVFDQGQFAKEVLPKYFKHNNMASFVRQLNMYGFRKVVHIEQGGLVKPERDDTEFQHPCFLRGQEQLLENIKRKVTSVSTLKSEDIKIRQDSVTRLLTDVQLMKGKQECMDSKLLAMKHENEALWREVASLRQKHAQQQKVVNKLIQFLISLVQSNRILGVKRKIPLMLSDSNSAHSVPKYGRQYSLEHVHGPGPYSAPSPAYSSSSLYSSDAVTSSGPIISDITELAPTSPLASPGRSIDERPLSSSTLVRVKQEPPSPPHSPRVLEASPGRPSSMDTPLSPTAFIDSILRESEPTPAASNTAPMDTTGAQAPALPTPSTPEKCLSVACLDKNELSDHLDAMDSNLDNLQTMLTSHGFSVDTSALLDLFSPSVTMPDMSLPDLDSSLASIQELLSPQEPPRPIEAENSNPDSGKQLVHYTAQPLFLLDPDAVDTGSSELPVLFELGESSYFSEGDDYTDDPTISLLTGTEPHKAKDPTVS

[2] = NIH3T3 cell viability loss – ATP luminescence, mouse fibroblasts, counter-screen, dose response (AID 2010); format: functional, cell-based;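 also: cells exposed to compound for about 90 hours before reading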
[3] = Trypanosoma cruzi growth suppression in host cells – NIH3T3 host cells, beta-gal luminescence, confirmation (AID 2044); format: functional, cell-based;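 also: intracellular parasites grown in NIH/3T3 mouse fibroblasts as host cells; luminescent beta-galactosidase reporter signal from transgenic T. cruzi replicating inside host cells; inhibitors lower the luminescence signal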
Cytochrome P450 2C19 = Cytochrome P450 2C19 (Homo sapiens, UniProt P33261); assay: Cytochrome panel assay with activity outcomes. Panel member name: p450-cyp2c19 Compounds with AC50 equal or less than 10 uM are considered active; format: functional
Sequence of Cytochrome P450 2C19 (P33261 whole entry): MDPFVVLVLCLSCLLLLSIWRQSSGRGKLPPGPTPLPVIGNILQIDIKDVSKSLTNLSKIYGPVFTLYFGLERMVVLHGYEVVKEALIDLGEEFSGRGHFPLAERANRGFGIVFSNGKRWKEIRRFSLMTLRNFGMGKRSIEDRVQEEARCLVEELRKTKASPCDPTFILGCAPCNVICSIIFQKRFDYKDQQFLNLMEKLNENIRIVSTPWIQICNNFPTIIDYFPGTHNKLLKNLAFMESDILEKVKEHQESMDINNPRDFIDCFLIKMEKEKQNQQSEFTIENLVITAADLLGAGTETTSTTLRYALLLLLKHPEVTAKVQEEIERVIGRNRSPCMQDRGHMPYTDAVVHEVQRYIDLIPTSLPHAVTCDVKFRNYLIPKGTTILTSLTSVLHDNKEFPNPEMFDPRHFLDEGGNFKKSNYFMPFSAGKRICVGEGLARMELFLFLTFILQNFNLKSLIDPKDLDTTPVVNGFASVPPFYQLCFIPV

Row | EC50 [1] | SMILES | EC50 [2] | EC50 [3] | further results
1 | > 195 µM (not active) | CCOC(=O)Cc1cnc(NC(=O)c2ccccc2)s1 |  |  | 
2 | > 195 µM (not active) | CC(CCCC(C)(C)O)NC(=O)c1ccc2oc(CCc3ccccc3)nc2c1 (configuration not stated) |  |  | 
3 | > 195 µM (not active) | Cc1ccc(-c2nnn(CC(=O)N(Cc3cccs3)C(C(=O)NC3CCCC3)c3ccncc3)n2)cc1 (configuration not stated) |  |  | 
4 | > 195 µM (not active) | COc1ccc(C)cc1S(=O)(=O)Nc1cc2c3c(c1)CCC(=O)N3CCC2 |  |  | 
5 | > 195 µM (not active) | CC(C)(C)OC(=O)N1CCN(C(=O)c2[nH]cnc2C(=O)NCC(=O)OCc2ccccc2)CC1 |  |  | 
6 | > 195 µM (not active) | O=C(/C=C/c1ccccc1)NC(=S)N1CCSCC1 |  |  | 
7 | > 195 µM (not active) | CCOc1cc(OCC)cc(C(=O)O)c1 |  |  | 
8 | > 195 µM (not active) | COc1ccc(C(=O)NCc2nnc(SCC(=O)N3CCC(C)CC3)o2)cc1OC |  |  | 
9 | > 195 µM (not active) | COc1ccc(/C=C2\CCCC3C2=NN(C(=O)COC(=O)CNC(=O)c2ccccc2)C3c2ccc(OC)cc2)cc1 (configuration not stated) |  |  | 
10 | > 195 µM (not active) | C=CCOc1ccc(/C=C/C(=O)OCC(=O)NCC2CCCCC2)cc1 |  |  | 
11 | > 195 µM (not active) | Cc1ccc([N+](=O)[O-])c(OCCCN2CCC(Cc3ccccc3)CC2)c1 |  |  | 
12 | > 195 µM (not active) | COc1cccc2cc(C(=O)NCc3ccco3)/c(=N/c3ccc(C(=O)O)cc3)oc12 |  |  | 
13 | > 195 µM (not active) | Nc1nc(NC(=O)C(Cl)(Cl)Cl)nn1-c1ccccc1 |  |  | 

The next lines start with the compound.

Row | SMILES | EC50 [1] | EC50 [2] | EC50 [3] | further results
14 | COc1cc(OC)c(OC)cc1/C=N/NC(=S)NCC1CCCO1 (configuration not stated) | > 195 µM (not active) |  |  | 
15 | Cc1ccc(S(=O)(=O)c2c(C)cc(C)nc2Cl)c(C)c1 |  | > 60 µM (not active) | 2 µM (active) | 
16 | Cc1ccc(N2C(=O)c3ccccc3NC2C(C)Cc2ccc3c(c2)OCO3)cc1 (configuration not stated) |  | > 30 µM (not active) | 2.61 µM (active) | 
17 | O=C(c1ccc(SCc2cccc(Br)c2)c([N+](=O)[O-])c1)N1CCN(c2ccccn2)CC1 |  | > 60 µM (not active) | 2.08 µM (active) | 
18 | S=C(Nc1ccc(Br)cc1Cl)NC1CCN(Cc2ccccc2)CC1 |  | > 30 µM (not active) | 0.228 µM (active) | 
19 | Oc1nc(CN2CCN(C/C=C/c3ccccc3)CC2)nc2cc(Cl)ccc12 |  | > 60 µM (not active) | 0.405 µM (active) | 
20 | CO[C@@H]1COC(=O)CCC[C@@H](C)[C@H](OC)COC(=O)[C@H](Cc2ccccc2)NC(=O)C/C=C\[C@H]1C |  |  |  | AC50 (Cytochrome P450 2C19; read-out: AC50): 0.00251 µM (inconclusive)
21 | O=C(Nc1c2c(nn1-c1ccc(F)cc1)CS(=O)(=O)C2)C12CC3CC(CC(C3)C1)C2 |  |  |  | AC50 (Cytochrome P450 2C19): inconclusive
22 | O=[N+]([O-])c1ccccc1/C=N/n1c(S)nnc1COc1ccccc1 |  |  |  | AC50 (Cytochrome P450 2C19; read-out: AC50): 11.2 µM (inconclusive)
23 | CC1CCCC(C)N1CC(O)COCC1COc2ccccc2O1.Cl (configuration not stated) |  |  |  | AC50 (Cytochrome P450 2C19): inconclusive
24 | Cc1ccc(N(C)C(=O)CN(C)S(=O)(=O)c2ccc3c(c2)n(C)c(=O)c(=O)n3C)cc1 | > 195 µM (not active) |  |  | 
25 | Oc1ccc(OCc2ccccc2)cc1 [MONOBENZONE] |  |  |  | AC50 (Cytochrome P450 2C19; read-out: AC50): 6.31 µM (inconclusive)
26 | COc1cccc(-n2c(SCC(=O)Nc3sc4c(c3C(N)=O)CCC4)nc3ccccc3c2=O)c1 |  | > 60 µM (not active) | 2.9 µM (active) | 
27 | Cc1cc(CN2CCN(CCC#N)CC2)c(O)c(C2(C)CCCCC2)c1 |  | > 60 µM (not active) | 1.1 µM (active) | 
28 | COc1ccc(CN(CC2CCC(C(=O)O)CC2)C(=S)Nc2ccc(C)c(Cl)c2)cc1 (configuration not stated) |  | > 60 µM (not active) | > 60 µM (not active) | 
29 | CCOc1c(C)cc(S(=O)(=O)NCc2cccnc2)c(C)c1C | > 195 µM (not active) |  |  | 
30 | CC(C)c1cccc2cc3c(nc12)-c1cccc(=O)n1C3 |  |  |  | AC50 (Cytochrome P450 2C19; read-out: AC50): 39.8 µM (inconclusive)
31 | C/C(=N\CCc1c(C)[nH]c2ccc(OCc3ccccc3)cc12)C1=C(O)CC(c2ccccc2)CC1=O (configuration not stated) |  | > 60 µM (not active) | 2.1 µM (active) | 
32 | O=C(Nc1nc(-c2ccccc2)cs1)C1CCCCN1S(=O)(=O)c1ccc(Cl)cc1 (configuration not stated) |  | > 60 µM (not active) | 2.22 µM (active) | 
